Assay results published in PubChem BioAssay (NCI).
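Compound exposure: 48 hours, 5 concentrations, 96-well plates. GI50: concentration for 50% inhibition of growth. TGI: concentration producing complete growth inhibition.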

Experiments:
Assay in all cases: NCI tumour cell line growth inhibition, 48 h
MDA-MB-435 = tested on: MDA-MB-435
RXF 393 renal = tested on: RXF 393 renal
A498 renal = tested on: A498 renal
MOLT-4 leukemia = tested on: MOLT-4 leukemia
UACC-257 melanoma = tested on: UACC-257 melanoma
NCI-H522 lung = tested on: NCI-H522 lung
HL-60(TB) leukemia = tested on: HL-60(TB) leukemia
ACHN renal = tested on: ACHN renal
T-47D breast = tested on: T-47D breast
CCRF-CEM leukemia = tested on: CCRF-CEM leukemia

## N#C/C(=C\Nc1ccccn1)C(=O)c1ccco1
MDA-MB-435
  TGI: > 100 µM
RXF 393 renal
  TGI: > 100 µM
A498 renal
  TGI: > 100 µM
MOLT-4 leukemia
  TGI: > 100 µM
UACC-257 melanoma
  TGI: > 100 µM
NCI-H522 lung
  TGI: > 100 µM
HL-60(TB) leukemia
  TGI: > 100 µM
ACHN renal
  TGI: > 100 µM

## CC1(C)N=C(N)N=C(N)N1c1ccc(CCc2ccc(Cl)cc2S(=O)(=O)F)c(Cl)c1
MDA-MB-435
  GI50: 4270 nM
  TGI: 25.4 µM
RXF 393 renal
  GI50: 23 µM
  TGI: > 100 µM
A498 renal
  GI50: 62.8 µM
  TGI: > 100 µM
MOLT-4 leukemia
  GI50: 11500 nM
  TGI: 73.6 µM
T-47D breast
  GI50: 17 µM
  TGI: 45.2 µM
CCRF-CEM leukemia
  GI50: 6730 nM
  TGI: 44.4 µM
UACC-257 melanoma
  GI50: 9.6 µM
  TGI: 27.5 µM
HL-60(TB) leukemia
  GI50: 13000 nM
  TGI: 48.1 µM
ACHN renal
  GI50: 44600 nM
  TGI: > 100 µM

## O=C(/C=C/c1cccc([N+](=O)[O-])c1)c1ccc(O)c(CN2CCN(c3cc4c(cc3F)c(=O)c(C(=O)O)cn4C3CC3)CC2)c1
MDA-MB-435
  GI50: 1670 nM
  TGI: 3.21 µM
RXF 393 renal
  GI50: 1.51 µM
  TGI: 2.99 µM
A498 renal
  GI50: 1.35 µM
  TGI: 2.84 µM
MOLT-4 leukemia
  GI50: 2250 nM
  TGI: 8.41 µM
T-47D breast
  GI50: 1.85 µM
  TGI: 4.99 µM
CCRF-CEM leukemia
  GI50: 1600 nM
  TGI: 10.8 µM
UACC-257 melanoma
  GI50: 1.69 µM
  TGI: 3.35 µM
HL-60(TB) leukemia
  GI50: 2240 nM
  TGI: 6.58 µM
ACHN renal
  GI50: 1400 nM
  TGI: 2.7 µM

## CCCCCCCC(=O)OCC1OC(n2cc(F)c(=O)[nH]c2=O)C(NC(=O)OCc2ccccc2)C(O)C1O (stereo not drawn)
RXF 393 renal
  TGI: > 100 µM
A498 renal
  TGI: > 100 µM
MOLT-4 leukemia
  TGI: > 100 µM
CCRF-CEM leukemia
  TGI: > 100 µM
UACC-257 melanoma
  TGI: > 100 µM
NCI-H522 lung
  TGI: 92 µM
HL-60(TB) leukemia
  TGI: > 100 µM
ACHN renal
  TGI: > 100 µM

## CCC(=O)C(C)C(=O)C(=O)C(=O)OC (stereo not drawn)
RXF 393 renal
  TGI: 99.3 µM
A498 renal
  TGI: > 100 µM
MOLT-4 leukemia
  TGI: > 91.5 µM
CCRF-CEM leukemia
  TGI: > 69.1 µM
UACC-257 melanoma
  TGI: > 100 µM
NCI-H522 lung
  TGI: > 100 µM
HL-60(TB) leukemia
  TGI: > 64.4 µM
ACHN renal
  TGI: > 100 µM

## O=C1[C@H]2ON(c3ccccc3)C(c3ccccc3F)[C@H]2C(=O)N1c1ccc(Cc2ccc(N3C(=O)[C@@H]4ON(c5ccccc5)C(c5ccccc5F)[C@@H]4C3=O)cc2)cc1 (stereo partly drawn)
RXF 393 renal
  TGI: > 100 µM
A498 renal
  TGI: > 100 µM
MOLT-4 leukemia
  TGI: > 100 µM
CCRF-CEM leukemia
  TGI: > 100 µM
UACC-257 melanoma
  TGI: > 100 µM
HL-60(TB) leukemia
  TGI: > 100 µM
ACHN renal
  TGI: > 100 µM

## O=C(O)C(C(=O)C(=O)C(C(=O)O)c1ccc(Cl)cc1)c1ccc(Cl)cc1 (stereo not drawn)
RXF 393 renal
  TGI: 8.37 µM
A498 renal
  TGI: 16.6 µM
MOLT-4 leukemia
  TGI: 5 µM
CCRF-CEM leukemia
  TGI: 10 µM
UACC-257 melanoma
  TGI: 11.4 µM
NCI-H522 lung
  TGI: 4.45 µM
HL-60(TB) leukemia
  TGI: 6.82 µM
ACHN renal
  TGI: 12.8 µM

## COc1ccc(SC2c3ccc(C)cc3Oc3nc(N)c(C#N)c(N)c32)cc1 (stereo not drawn)
MDA-MB-435
  GI50: 1690 nM
  TGI: 3.16 µM
RXF 393 renal
  GI50: 1.65 µM
  TGI: 3.01 µM
A498 renal
  GI50: 1.91 µM
  TGI: 3.44 µM
MOLT-4 leukemia
  GI50: 1960 nM
  TGI: 5.61 µM
T-47D breast
  GI50: 1.9 µM
  TGI: 4.63 µM
CCRF-CEM leukemia
  GI50: 2850 nM
  TGI: 7.67 µM
UACC-257 melanoma
  GI50: 1.99 µM
  TGI: 3.49 µM
HL-60(TB) leukemia
  GI50: 1860 nM
  TGI: 3.99 µM
ACHN renal
  GI50: 1760 nM
  TGI: 3.15 µM

## CC1=C(C(=O)Nc2ccc([N+](=O)[O-])cc2)C(c2ccccc2O)C(C(=O)Nc2ccc([N+](=O)[O-])cc2)=C(C)N1
RXF 393 renal
  TGI: 45.9 µM
A498 renal
  TGI: 66.4 µM
MOLT-4 leukemia
  TGI: 52.8 µM
CCRF-CEM leukemia
  TGI: 61.7 µM
UACC-257 melanoma
  TGI: 51.1 µM
NCI-H522 lung
  TGI: 35.9 µM
HL-60(TB) leukemia
  TGI: 48.2 µM
ACHN renal
  TGI: 58 µM

## O=[P+](O)c1cc2ccccc2c2ccccc12
RXF 393 renal
  TGI: > 100 µM
MOLT-4 leukemia
  TGI: > 100 µM
CCRF-CEM leukemia
  TGI: > 100 µM
NCI-H522 lung
  TGI: > 100 µM
HL-60(TB) leukemia
  TGI: > 100 µM

## COc1ccc(OC)c(NCC#N)c1
RXF 393 renal
  TGI: > 100 µM
A498 renal
  TGI: > 100 µM
MOLT-4 leukemia
  TGI: > 100 µM
CCRF-CEM leukemia
  TGI: > 100 µM
UACC-257 melanoma
  TGI: > 100 µM
NCI-H522 lung
  TGI: > 100 µM
HL-60(TB) leukemia
  TGI: > 100 µM
ACHN renal
  TGI: > 100 µM

## CC(=O)OCc1ccc(O)c(C=O)c1
MDA-MB-435
  TGI: > 100 µM
RXF 393 renal
  TGI: > 100 µM
MOLT-4 leukemia
  TGI: > 100 µM
T-47D breast
  TGI: > 100 µM
CCRF-CEM leukemia
  TGI: > 100 µM
UACC-257 melanoma
  TGI: > 100 µM
NCI-H522 lung
  TGI: > 100 µM
HL-60(TB) leukemia
  TGI: > 100 µM
ACHN renal
  TGI: > 100 µM

## CN(C(=O)C12C3(C(=O)C(C)(C)C)C4C5(C#N)C3C1(C(=O)C(C)(C)C)C5C42C(=O)C(C)(C)C)C(C)(C)C (stereo not drawn)
A498 renal
  TGI: > 50 µM
MOLT-4 leukemia
  TGI: > 50 µM
CCRF-CEM leukemia
  TGI: > 50 µM
UACC-257 melanoma
  TGI: > 50 µM
NCI-H522 lung
  TGI: > 50 µM
HL-60(TB) leukemia
  TGI: > 50 µM
ACHN renal
  TGI: > 50 µM

## COc1cc2c(cc1OC)C(CC1(O)CCCCC1)N(S(=O)(=O)c1ccc(C)cc1)CC2 (stereo not drawn)
MDA-MB-435
  GI50: > 10000 nM
  TGI: > 10 µM
RXF 393 renal
  GI50: > 10 µM
  TGI: > 10 µM
A498 renal
  GI50: > 10 µM
  TGI: > 10 µM
MOLT-4 leukemia
  GI50: > 10000 nM
  TGI: > 10 µM
T-47D breast
  GI50: > 10 µM
  TGI: > 10 µM
CCRF-CEM leukemia
  GI50: > 10000 nM
  TGI: > 10 µM
UACC-257 melanoma
  GI50: > 10 µM
  TGI: > 10 µM
NCI-H522 lung
  GI50: > 10 µM
  TGI: > 10 µM
ACHN renal
  GI50: > 10000 nM
  TGI: > 10 µM

## CN(C)C(=S)/N=c1\ss/c(=N\C(=S)N(C)C)n1-c1ccc(Cl)cc1
RXF 393 renal
  TGI: > 100 µM
A498 renal
  TGI: > 100 µM
MOLT-4 leukemia
  TGI: > 100 µM
CCRF-CEM leukemia
  TGI: > 100 µM
UACC-257 melanoma
  TGI: > 100 µM
NCI-H522 lung
  TGI: > 100 µM
HL-60(TB) leukemia
  TGI: > 100 µM
ACHN renal
  TGI: > 100 µM

## O=C1c2cc(-c3ccccc3)ccc2-c2c1c1ccc([N+](=O)[O-])cc1c(=O)n2CCCBr
MDA-MB-435
  GI50: > 50000 nM
  TGI: > 50 µM
RXF 393 renal
  GI50: > 26.3 µM
  TGI: > 43.7 µM
A498 renal
  GI50: 32.5 µM
  TGI: > 50 µM
MOLT-4 leukemia
  GI50: > 50000 nM
  TGI: > 50 µM
T-47D breast
  GI50: > 50 µM
  TGI: > 50 µM
CCRF-CEM leukemia
  GI50: 160 nM
  TGI: 0.6 µM
UACC-257 melanoma
  GI50: > 50 µM
  TGI: > 50 µM
NCI-H522 lung
  GI50: > 50 µM
  TGI: > 50 µM
ACHN renal
  GI50: > 36300 nM
  TGI: > 50 µM

## O=c1nc(NC(c2ccccc2)(c2ccccc2)c2ccccc2)ccn1CCO
RXF 393 renal
  TGI: > 100 µM
A498 renal
  TGI: > 100 µM
MOLT-4 leukemia
  TGI: > 100 µM
UACC-257 melanoma
  TGI: > 100 µM
NCI-H522 lung
  TGI: > 100 µM
HL-60(TB) leukemia
  TGI: > 100 µM
ACHN renal
  TGI: > 100 µM

## COc1ccc2c(c1)CCc1[nH]nc(-c3cc(OC)c(OC)c(OC)c3)c1-2
MDA-MB-435
  GI50: < 10 nM
  TGI: < 0.01 µM
A498 renal
  GI50: < 0.01 µM
  TGI: < 0.01 µM
MOLT-4 leukemia
  GI50: < 10 nM
  TGI: > 100 µM
T-47D breast
  GI50: 3.59 µM
  TGI: 21.3 µM
CCRF-CEM leukemia
  GI50: < 10 nM
  TGI: > 100 µM
NCI-H522 lung
  GI50: < 0.01 µM
  TGI: < 0.01 µM
ACHN renal
  GI50: < 10 nM
  TGI: 21.7 µM

## CCOC(=O)[C@H]1CSC[C@@H](C(=O)OC)N1
RXF 393 renal
  TGI: > 100 µM
A498 renal
  TGI: > 100 µM
MOLT-4 leukemia
  TGI: > 100 µM
CCRF-CEM leukemia
  TGI: > 100 µM
UACC-257 melanoma
  TGI: > 100 µM
NCI-H522 lung
  TGI: > 100 µM
HL-60(TB) leukemia
  TGI: > 100 µM
ACHN renal
  TGI: > 100 µM
